Reference: ChEMBL document CHEMBL3588797, “Tetrazole activity against Candida albicans. The role of KEX2 mutations in the sensitivity to (±)-1-[5-(2-chlorophenyl)-2H-tetrazol-2-yl]propan-2-yl acetate” (Bioorg Med Chem Lett, 2015)
≈ marks a conversion by molar mass, not a printed value.

Columns and labels:
Format in all cases: functional
Candida albicans [1] = assay: Antifungal activity against Candida albicans 90028 ATCC assessed as inhibition of growth at 8 ug/ml after 48 hrs relative to control
Candida albicans [2] = assay: Antifungal activity against Candida albicans 90028 ATCC assessed as inhibition of growth at 4 ug/ml after 48 hrs relative to control
Candida albicans [3] = assay: Antifungal activity against Candida albicans 90028 ATCC assessed as decrease in turbidity after 48 hrs relative to control
Candida albicans [4] = assay: Antifungal activity against Candida albicans 90028 ATCC assessed as inhibition of growth at 16 ug/ml after 48 hrs relative to control
Candida albicans [5] = assay: Antifungal activity against Candida albicans 90028 ATCC assessed as inhibition of growth at 0.03 ug/ml after 48 hrs relative to control
Candida albicans [6] = assay: Antifungal activity against Candida albicans 90028 ATCC assessed as inhibition of growth at 0.25 ug/ml after 48 hrs relative to control
Candida albicans [7] = assay: Antifungal activity against Candida albicans 90028 ATCC assessed as inhibition of growth at 1 ug/ml after 48 hrs relative to control
Candida albicans [8] = assay: Antifungal activity against Candida albicans 90028 ATCC assessed as inhibition of growth at 0.12 ug/ml after 48 hrs relative to control
Candida albicans [9] = assay: Antifungal activity against Candida albicans 90028 ATCC assessed as inhibition of growth at 2 ug/ml after 48 hrs relative to control
Candida albicans [10] = assay: Antifungal activity against Candida albicans 90028 ATCC assessed as inhibition of growth at 0.5 ug/ml after 48 hrs relative to control
Candida albicans [11] = assay: Antifungal activity against Candida albicans 90028 ATCC assessed as inhibition of growth at 0.06 ug/ml after 48 hrs relative to control

| Structure (SMILES) | inhibition at 8 µg/mL (Candida albicans [1]) | inhibition at 4 µg/mL (Candida albicans [2]) | MIC (Candida albicans [3]) | inhibition at 16 µg/mL (Candida albicans [4]) | inhibition at 0.03 µg/mL (Candida albicans [5]) | inhibition at 0.25 µg/mL (Candida albicans [6]) | inhibition at 1 µg/mL (Candida albicans [7]) | inhibition at 0.12 µg/mL (Candida albicans [8]) | inhibition at 2 µg/mL (Candida albicans [9]) | inhibition at 0.5 µg/mL (Candida albicans [10]) | inhibition at 0.06 µg/mL (Candida albicans [11]) |
| --- | --- | --- | --- | --- | --- | --- | --- | --- | --- | --- | --- |
| Cc1ccc(-c2nnn(CCC(C)O)n2)cc1 (racemic) | 98.9% | 99% | 4 µg/mL (≈ 17.2 µM) | 98.9% | 98.9% | 98.9% | 98.9% | 98.9% | 98.9% | 98.9% | 99% |
| CC(O)CCn1nnc(-c2ccccc2Cl)n1 (racemic) | 99% | 99% | 8 µg/mL (≈ 31.7 µM) | 99% | 98.8% | 98.9% | 99% | 99% | 98.9% | 99% | 98.9% |
| CC(O)Cn1nnc(-c2ccccc2)n1 (racemic) | 98.9% | 98.9% |  | 98.8% | 98.8% | 98.7% | 98.8% | 98.7% | 98.8% | 98.7% | 98.8% |
| Cc1ccc(-c2nnn(CC(C)O)n2)cc1 (racemic) | 98.9% | 98.9% |  | 98.8% | 98.9% | 99% | 98.8% | 98.9% | 98.9% | 98.9% | 99% |
| CC(O)Cn1nnc(-c2ccccc2Cl)n1 (racemic) | 99% | 99% | 0.125 µg/mL (≈ 0.524 µM) | 98.9% | 98.9% | 99% | 99% | 99% | 98.9% | 99.1% | 99% |
| C[C@@H]1[C@H](O)[C@@H](C)/C=C/C=C/C=C/C=C/C=C/C=C/C=C/[C@H](O[C@@H]2O[C@H](C)[C@@H](O)[C@H](N)[C@@H]2O)C[C@@H]2O[C@](O)(C[C@@H](O)C[C@@H](O)[C@H](O)CC[C@@H](O)C[C@@H](O)CC(=O)O[C@H]1C)C[C@H](O)[C@H]2C(=O)O [AMPHOTERICIN B] |  |  |  |  |  |  |  |  |  | 100% |  |
